From article PMC6271849, “Quantitative Analysis of the Flavonoid Glycosides and Terpene Trilactones in the Extract of Ginkgo biloba and Evaluation of Their Inhibitory Activity towards Fibril Formation of β-Amyloid Peptide” (Molecules, 2014)

molecular target: T1, amyloid β peptide (Aβ42) (Homo sapiens, UniProt P05067); test: biochemical
T1 construct: gene APP; Aβ42 peptide
T1 sequence (P05067 672-713 limits assumed): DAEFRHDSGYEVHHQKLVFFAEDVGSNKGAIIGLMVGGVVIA

IC50 [µM] | SMILES
67.1 ± 11.7 | C[C@@H]1O[C@@H](Oc2c(-c3ccc(O)c(O)c3)oc3cc(O)cc(O)c3c2=O)[C@H](O[C@@H]2O[C@H](CO)[C@@H](O)[C@H](O)[C@H]2O)[C@H](O)[C@H]1O [compound 2, quercetin 3-O-α-L-(β-D-glucopyranosyl)-(1,2)-rhamnopyranoside]
32.6 ± 4.83 | C[C@@H]1O[C@@H](Oc2c(-c3ccc(O)c(O)c3)oc3cc(O)cc(O)c3c2=O)[C@H](O[C@@H]2O[C@H](COC(=O)/C=C/c3ccc(O)cc3)[C@@H](O)[C@H](O)[C@H]2O)[C@H](O)[C@H]1O [compound 6, quercetin 3-O-α-(6′′′-p-coumaroylglucopyranosyl-β-1,2-rhamnopyranoside)]

SMILES | IC50 [µM]
C[C@@H]1O[C@@H](OC[C@H]2O[C@@H](Oc3c(-c4ccc(O)c(O)c4)oc4cc(O)cc(O)c4c3=O)[C@H](O)[C@@H](O)[C@@H]2O)[C@H](O)[C@H](O)[C@H]1O [compound 1, quercetin 3-O-β-D-rutinoside] | 33 ± 4.84
